{"source": "patent US20160128912A1", "about": "“Personal Care Compositions and Hangers” (The Procter & Gamble Company, priority 2014, published 2016)", "origin": "cited, not measured here", "data": [{"values": [{"smiles": "O=C(O)c1ccccc1O", "note": "[Salicylic acid, reference compound]", "Log (water Solubility in mol/L)": "−1.41"}, {"smiles": "Oc1cc(Cl)ccc1Oc1ccc(Cl)cc1Cl", "note": "[Triclosan, reference compound]", "Log (water Solubility in mol/L)": "−2.46"}, {"smiles": "C=CCCCCCCCCC(=O)O", "note": "[Undecylenic Acid]", "Log (water Solubility in mol/L)": "−3.15"}, {"smiles": "OCc1ccccc1", "note": "[benzyl Alcohol]", "Log (water Solubility in mol/L)": "−0.47"}, {"smiles": "CCCCCCC(O)CO", "note": "(centres unmarked) [caprylyl glycol]", "Log (water Solubility in mol/L)": "−3.08"}, {"smiles": "CCOC(=O)c1ccc(O)cc1", "note": "[ethyl paraben]", "Log (water Solubility in mol/L)": "−1.91"}, {"smiles": "OCCc1ccccc1", "note": "[phenethyl alcohol]", "Log (water Solubility in mol/L)": "−0.83"}, {"smiles": "C/C=C/C=C/C(=O)O", "note": "[sorbic acid]", "Log (water Solubility in mol/L)": "−0.33"}]}]}
